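All cell lines were grown in 96-well plates and treated with compound for 48 hours. Abbreviation: GI50, concentration required for 50% inhibition of growth. Definition used: TGI = concentration required for complete inhibition of growth.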

Among the test systems are SK-MEL-2 melanoma; UACC-62 melanoma; SK-MEL-5 melanoma; DU-145 prostate; CAKI-1 renal; HOP-92 NSCLC; MDA-MB-231 breast; SF-295 CNS; HOP-62 NSCLC; SN12C renal.
What all share (experiment): DTP human tumour cell line panel, 48 h

In the case of `CC(C)(CO)CNc1nc(N)nc(Cl)c1N`, the TGI in the test on SK-MEL-2 melanoma, in the test on UACC-62 melanoma, in the test on SK-MEL-5 melanoma, in the test on DU-145 prostate, with CAKI-1 renal and in the test on HOP-92 NSCLC was more than 100 µM each time. Moreover, the TGI with MDA-MB-231 breast, in the test on SF-295 CNS, in the test on HOP-62 NSCLC and in the test with SN12C renal was more than 100 µM each time.
Regarding `CC[C@]12C=CCN3CCC4(c5cc(N=Nc6ccccc6)c(OC)cc5N(C)[C@H]4[C@@](O)(C(=O)OC)[C@@H]1OC(C)=O)[C@@H]32` (stereo not given in full), the TGI is 31.4 µM in the test with SK-MEL-2 melanoma; 29.4 µM in the test with UACC-62 melanoma; 44.2 µM with SK-MEL-5 melanoma; 34.9 µM in the test on DU-145 prostate; 69.8 µM in the test with CAKI-1 renal; 30.2 µM with HOP-92 NSCLC. Further, the TGI in the test with MDA-MB-231 breast was found to be 31.6 µM; in the test on SF-295 CNS, 34.5 µM; in the test with HOP-62 NSCLC it was 35.2 µM; with SN12C renal, 35.7 µM.
In the case of `OCC1OC(n2cnc3cccnc32)CC1O` (stereo not given), the TGI with SK-MEL-2 melanoma, in the test with UACC-62 melanoma, in the test with SK-MEL-5 melanoma, in the test with DU-145 prostate, in the test with CAKI-1 renal and with HOP-92 NSCLC was more than 100 µM in each case. For the same molecule, the TGI in the test on MDA-MB-231 breast, in the test on SF-295 CNS, in the test with HOP-62 NSCLC and with SN12C renal was more than 100 µM each time.
For `Cn1c(=O)c2c(-c3ccccc3)onc2n(C)c1=O`, the TGI in the test with SK-MEL-2 melanoma was 81.8 µM; with UACC-62 melanoma, more than 100 µM; in the test on SK-MEL-5 melanoma it was more than 100 µM; in the test with CAKI-1 renal, more than 100 µM; in the test with HOP-92 NSCLC it was more than 100 µM; with MDA-MB-231 breast it was more than 100 µM. In addition, the TGI in the test on SF-295 CNS, in the test with HOP-62 NSCLC and in the test with SN12C renal was more than 100 µM each time.
In the case of `O=C(CC(O)(C(F)(F)F)C(F)(F)F)C(CCCl)C(O)(C(F)(F)F)C(F)(F)F` (stereo not given), the total growth inhibition concentration (TGI) is more than 100 µM in the test on SK-MEL-2 melanoma; more than 100 µM in the test on UACC-62 melanoma; 71 µM with SK-MEL-5 melanoma; more than 100 µM in the test on DU-145 prostate; 77.1 µM in the test with CAKI-1 renal; more than 100 µM in the test on MDA-MB-231 breast. Further, the TGI was more than 100 µM with SF-295 CNS, more than 100 µM in the test on HOP-62 NSCLC and 67 µM with SN12C renal.
In the case of `O=C(c1ccccc1)c1c(C(F)(F)F)n([O-])c2ccccc2[n+]1=O`, the TGI was 3.43 µM with SK-MEL-2 melanoma; 3.52 µM with UACC-62 melanoma; 4.54 µM in the test with DU-145 prostate; 1.94 µM in the test on CAKI-1 renal; 1.2 µM in the test with HOP-92 NSCLC; more than 100 µM in the test with HOP-62 NSCLC.
Regarding `Cc1ccc(S(=O)(=O)n2cncc2CO)cc1`, the TGI in the test on SK-MEL-2 melanoma, in the test with UACC-62 melanoma, with SK-MEL-5 melanoma, in the test with DU-145 prostate, in the test with CAKI-1 renal and in the test with MDA-MB-231 breast was more than 100 µM throughout. Moreover, the TGI in the test with SF-295 CNS, in the test on HOP-62 NSCLC and with SN12C renal was more than 100 µM throughout.
As to `CC1(C)O[C@@H](CO)[C@H]([C@@]23OC[C@H]4OC(C)(C)OC4[C@@H]2OC(C)(C)O3)O1` (stereo not given in full), the TGI in the test with SK-MEL-2 melanoma, with SK-MEL-5 melanoma, in the test with DU-145 prostate, in the test with HOP-92 NSCLC, in the test with MDA-MB-231 breast and in the test with SF-295 CNS was more than 100 µM in each case. Moreover, the TGI in the test with HOP-62 NSCLC and in the test on SN12C renal was more than 100 µM each time.
On to `O=C(c1ccc2ccccc2c1)C1S(=O)(=O)OCCOS1(=O)=O`, for which the TGI in the test with SK-MEL-2 melanoma, with SK-MEL-5 melanoma, in the test with DU-145 prostate, with CAKI-1 renal, in the test on SF-295 CNS and in the test on HOP-62 NSCLC was more than 100 µM each time. This molecule showed a TGI in the test on SN12C renal of more than 100 µM.
As for `O=S1(=O)NNC(=NCc2ccc(Cl)cc2)c2ccccc21`, the TGI in the test on SK-MEL-2 melanoma, with UACC-62 melanoma, in the test with SK-MEL-5 melanoma, in the test with CAKI-1 renal, with HOP-92 NSCLC and with SF-295 CNS was more than 100 µM in each case. Besides, in the test on SN12C renal, the TGI is more than 100 µM.
With `CN=C(Nn1cnnc1)OC`, the TGI in the test on SK-MEL-2 melanoma, in the test on UACC-62 melanoma, in the test with SK-MEL-5 melanoma, in the test with DU-145 prostate, in the test with CAKI-1 renal and with HOP-92 NSCLC was more than 100 µM each time. The TGI in the test with MDA-MB-231 breast, with SF-295 CNS and in the test with HOP-62 NSCLC was more than 100 µM in each case.
As for `N#CCCC1C(C#N)C2CC1C1C3C=CC(C3)C21` (stereo not given), the TGI in the test with SK-MEL-2 melanoma, in the test on UACC-62 melanoma, in the test with SK-MEL-5 melanoma, in the test on DU-145 prostate, in the test on CAKI-1 renal and with HOP-92 NSCLC was more than 100 µM each time. In addition, the TGI with MDA-MB-231 breast and in the test with SF-295 CNS was more than 100 µM each time.
Turning to `NC(Cc1cc(I)c(O)c(I)c1)C(=O)O` (stereo not given), the TGI is more than 500 µM with SK-MEL-2 melanoma; more than 357 µM in the test with UACC-62 melanoma; more than 500 µM in the test on SK-MEL-5 melanoma; 249 µM in the test with CAKI-1 renal; more than 107 µM with HOP-92 NSCLC; more than 500 µM in the test on SF-295 CNS. Moreover, the TGI in the test on HOP-62 NSCLC and in the test with SN12C renal was more than 500 µM throughout.
As to `OC(c1ccc(Cl)cc1)(c1ccc(Cl)cc1)C(O)(c1ccc(Cl)cc1)c1ccc(Cl)cc1`, in the test with UACC-62 melanoma, the GI50 was 2410 nM and the TGI is more than 100 µM. Also, in the test on SN12C renal, the GI50 is 3.06 µM and the TGI is more than 100 µM.
On to `CS(=O)(=O)OCCN1CCC2(CC1)SSC1(CCN(CCOS(C)(=O)=O)CC1)S2`, for which the TGI in the test with SK-MEL-2 melanoma was more than 100 µM; in the test with UACC-62 melanoma, more than 100 µM; in the test with SK-MEL-5 melanoma it was more than 100 µM; with CAKI-1 renal, 44.9 µM; in the test on MDA-MB-231 breast it was more than 100 µM; in the test with SF-295 CNS it was more than 100 µM. Moreover, the TGI with HOP-62 NSCLC and in the test on SN12C renal was more than 100 µM throughout.
`COC(=O)c1ccc(-c2nc(C#N)c(N)o2)cc1`: the TGI in the test with SK-MEL-2 melanoma is more than 100 µM; in the test on SK-MEL-5 melanoma it was more than 100 µM; in the test on DU-145 prostate, more than 100 µM; with CAKI-1 renal it was more than 100 µM; in the test on MDA-MB-231 breast, 85.8 µM; in the test on SF-295 CNS it was more than 100 µM. Besides, the TGI in the test on HOP-62 NSCLC and in the test on SN12C renal was more than 100 µM each time.

One may read the TGI as the concentration giving total growth inhibition. As a reminder, the GI50 is the concentration that inhibits growth by half.

(Values after PubChem BioAssay (NCI).)
